Experimental data from BindingDB's records for doi:10.1021/acs.jmedchem.6b00538 (University of Lille, 2017).

Target: Fatty-acid amide hydrolase 1 (Rattus norvegicus) (UniProt P97612)
Assay: Inhibition of Wistar rat brain homogenate FAAH using [3H]AEA as substrate after 10 mins by liquid scintillation counting method

Chain of Fatty-acid amide hydrolase 1 (Rattus norvegicus) (P97612 whole entry, looked up): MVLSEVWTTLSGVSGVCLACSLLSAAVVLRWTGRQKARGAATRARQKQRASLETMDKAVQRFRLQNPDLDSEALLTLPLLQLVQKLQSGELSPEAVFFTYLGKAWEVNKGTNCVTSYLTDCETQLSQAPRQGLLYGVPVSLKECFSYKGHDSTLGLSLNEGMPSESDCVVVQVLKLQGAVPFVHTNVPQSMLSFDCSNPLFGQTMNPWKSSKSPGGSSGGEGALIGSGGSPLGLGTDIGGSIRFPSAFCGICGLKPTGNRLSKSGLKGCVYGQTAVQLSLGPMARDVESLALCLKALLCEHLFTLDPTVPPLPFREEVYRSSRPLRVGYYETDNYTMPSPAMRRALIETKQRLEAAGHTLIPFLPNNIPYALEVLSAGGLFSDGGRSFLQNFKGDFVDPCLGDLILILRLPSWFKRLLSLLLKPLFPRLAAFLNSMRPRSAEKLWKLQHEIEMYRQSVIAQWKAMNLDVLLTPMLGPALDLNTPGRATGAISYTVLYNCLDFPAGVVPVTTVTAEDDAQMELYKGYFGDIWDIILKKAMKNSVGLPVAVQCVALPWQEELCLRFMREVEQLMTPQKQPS

`COc1nn(-c2ccc(Oc3ccccc3)cc2C(F)(F)F)c(=O)o1` gave an IC50 of 230 nM.
